Source: PMC7740640 (Xenobiotica; the fate of foreign compounds in biological …, 2020)
Where two headings read alike, the source gives them in different places.

Tests used:
[1] = molecular target: CYP2C19 (Homo sapiens, UniProt P33261); test: Inhibition of C152 metabolism, SS
[2] = molecular target: T1, CYP1A2 (Homo sapiens, UniProt P05177); test: C152 metabolism; format: in vitro ADME; settings: SS(1A2); initial substrate C152 28 μM; scanning fluorimetry
T1 sequence (P05177 2-516 limits assumed): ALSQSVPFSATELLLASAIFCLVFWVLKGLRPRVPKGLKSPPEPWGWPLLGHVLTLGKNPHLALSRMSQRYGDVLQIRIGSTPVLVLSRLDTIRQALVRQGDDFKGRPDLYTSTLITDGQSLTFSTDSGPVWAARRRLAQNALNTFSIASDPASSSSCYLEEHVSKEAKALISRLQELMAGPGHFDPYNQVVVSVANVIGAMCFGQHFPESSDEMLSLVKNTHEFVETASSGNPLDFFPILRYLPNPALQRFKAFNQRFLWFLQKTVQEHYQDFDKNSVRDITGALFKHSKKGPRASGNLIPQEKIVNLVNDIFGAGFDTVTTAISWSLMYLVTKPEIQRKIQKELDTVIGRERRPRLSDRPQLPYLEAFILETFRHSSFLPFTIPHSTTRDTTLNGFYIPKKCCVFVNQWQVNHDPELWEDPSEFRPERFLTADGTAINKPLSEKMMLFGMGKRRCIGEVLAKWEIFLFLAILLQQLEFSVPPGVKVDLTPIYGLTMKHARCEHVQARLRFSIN

[3] = tested on: human liver microsomes (HLM); test: Inhibition of C152 metabolism, HLM; format: biochemical; settings: 30 μM C152 as substrate
[4] = molecular target: T2, CYP2B6 (Homo sapiens, UniProt P20813); test: Inhibition of C152 metabolism, SS
T2 sequence (P20813 1-491): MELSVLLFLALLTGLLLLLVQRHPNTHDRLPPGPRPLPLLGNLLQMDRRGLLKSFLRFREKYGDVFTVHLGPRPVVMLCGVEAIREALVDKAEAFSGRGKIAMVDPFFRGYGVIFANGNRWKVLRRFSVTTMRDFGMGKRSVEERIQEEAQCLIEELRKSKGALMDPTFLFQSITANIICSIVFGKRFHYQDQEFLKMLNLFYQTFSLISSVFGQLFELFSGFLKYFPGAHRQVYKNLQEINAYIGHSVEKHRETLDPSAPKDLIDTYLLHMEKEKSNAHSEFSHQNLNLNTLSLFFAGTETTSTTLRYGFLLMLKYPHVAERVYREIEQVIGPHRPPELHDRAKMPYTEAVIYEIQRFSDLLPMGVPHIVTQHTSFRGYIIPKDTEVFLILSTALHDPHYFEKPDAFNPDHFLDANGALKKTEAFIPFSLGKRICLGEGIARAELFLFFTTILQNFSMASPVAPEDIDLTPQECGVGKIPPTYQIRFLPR

[5] = molecular target: CYP3A4 (Homo sapiens, UniProt P08684); test: Inhibition of C152 metabolism, SS
Sequence of CYP3A4 (P08684 2-503 limits assumed): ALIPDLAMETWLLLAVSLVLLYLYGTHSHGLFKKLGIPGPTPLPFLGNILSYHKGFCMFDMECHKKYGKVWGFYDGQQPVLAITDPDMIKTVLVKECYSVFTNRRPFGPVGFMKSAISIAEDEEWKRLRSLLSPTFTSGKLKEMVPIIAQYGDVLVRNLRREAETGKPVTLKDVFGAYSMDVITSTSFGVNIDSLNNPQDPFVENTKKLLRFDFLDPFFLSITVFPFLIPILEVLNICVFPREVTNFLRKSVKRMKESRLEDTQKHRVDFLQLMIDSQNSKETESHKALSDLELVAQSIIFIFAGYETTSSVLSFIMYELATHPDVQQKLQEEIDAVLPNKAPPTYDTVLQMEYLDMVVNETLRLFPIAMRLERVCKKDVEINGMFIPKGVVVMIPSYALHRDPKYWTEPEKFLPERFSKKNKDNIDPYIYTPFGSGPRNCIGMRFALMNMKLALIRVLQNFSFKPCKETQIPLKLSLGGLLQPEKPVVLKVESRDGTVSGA

[6] = SS(2B6), 30 μM C152 as substrate
[7] = SS(3A4), 30 μM C152 as substrate

Sequence of CYP2C19 (P33261 whole entry): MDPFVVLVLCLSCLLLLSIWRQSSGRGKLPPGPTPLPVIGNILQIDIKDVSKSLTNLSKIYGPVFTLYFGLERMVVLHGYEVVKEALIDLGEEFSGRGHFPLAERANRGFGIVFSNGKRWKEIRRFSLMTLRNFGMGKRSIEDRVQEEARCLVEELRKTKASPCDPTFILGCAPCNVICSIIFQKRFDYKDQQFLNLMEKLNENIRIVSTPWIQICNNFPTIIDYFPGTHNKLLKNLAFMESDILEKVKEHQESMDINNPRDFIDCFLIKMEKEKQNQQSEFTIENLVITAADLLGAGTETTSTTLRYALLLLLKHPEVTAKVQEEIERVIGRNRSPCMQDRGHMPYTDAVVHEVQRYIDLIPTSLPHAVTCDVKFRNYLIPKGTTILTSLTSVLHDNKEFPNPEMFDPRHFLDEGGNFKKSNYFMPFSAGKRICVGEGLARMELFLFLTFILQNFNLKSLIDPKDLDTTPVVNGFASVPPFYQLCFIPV

| Compound | IC50 [1] [µM] | IC50 [3] [µM] | Inhibition (maximal amplitude) [3] [%] | IC50 [4] [µM] | also measured |
| --- | --- | --- | --- | --- | --- |
| Clc1ccccc1C(c1ccccc1)(c1ccccc1)n1ccnc1 [CTZ, clotrimazole] | 0.2 ± 0.11 | – | – | – | – |
| CNc1ccc2c(C(F)(F)F)cc(=O)oc2c1 [DC152, 7-methylamino-4-trifluoromethyl coumarin] | – | – | – | – | maximal level of formation of DC152 [2]: ~ 4 μM |
| CC[C@@]1(c2ccccc2)NC(=O)N(Cc2ccccc2)C1=O [BNVL, (S)-(+)-N-3-benzylnirvanol] | – | 0.51 ± 0.03 | – | – | IC50 [4, 6]: 8.5 ± 2.3 µM; Inhibition (maximal amplitude) [4, 6]: 81±7%; IC50 [5, 7]: 27 ± 3 µM; Inhibition (maximal amplitude) [5, 7]: 59±10% |
| CC(=O)N1CCN(c2ccc(OCC3COC(Cn4ccnc4)(c4ccc(Cl)cc4Cl)O3)cc2)CC1 (stereo not drawn) [KCZ, ketoconazole] | – | 1.9 ± 0.2 | 89±7 | 9.5 ± 2.8 | – |
| Clc1ccc(Cc2ccncc2)cc1 [CBP, 4-(4-Chlorobenzyl)pyridine] | 215 ± 118 | 225 ± 30 | 88±12 | 0.038 ± 0.016 | IC50 [5]: 225 ± 73 µM |
